Assays:
HBV = assay: Anti-HBV activity: HBV DNA in culture medium by qPCR, HepG2.2.15 cells; type: cell-based; conditions: Hepatitis B virus, 144 h, 6 days treatment
Description: (§1) HepG2.2.15 (the HepG2.2.15 cell line can be produced by transfection of the HepG2 cell line as described in Sells, Chen, and Acs 1987 (Proc. Natl. Acad. Sci. USA 84: 1005-1009), and the HepG2 cell line is available from ATCC® under number HB-8065™)
(§2) HepG2.2.15 cells were plated into 96-well plate in 2% FBS culture medium at the density of 40,000 cells/well and 5,000 cells/well for HBV inhibitory activity and cytotoxicity determination, respectively. After incubation at 37° C., 5% CO2 overnight, cells were treated with medium containing compounds for 6 days with medium and compounds refreshed after 3 days of treatment. Each compound was tested in a 1:3 serial dilutions at 8 different concentrations in triplicate. The highest concentration of the compounds was 10 uM or 1 uM for anti-HBV activity assay and 100 uM for cytotoxicity determination.
The change of HBV DNA level induced by the compounds was assessed by quantitative real-time polymerase chain reaction (qPCR). Briefly, the HBV DNA in the culture medium was extracted using QIAamp 96 DNA Blood Kit according to the manual and then quantified by real-time PCR assay using the primers and probe in the table 1 below.
(§3) EC50 and CC50 values are calculated by the GRAPHPAD PRISM software.

[1] = Cytotoxicity determination by CCK-8 assay, HepG2.2.15 cells; type: cell-based; conditions: human, 6 days treatment
Description: as §1, §2
Cell viability was determined by CCK-8 assay. After 6 days of compounds treatment, 20 μl CCK-8 reagents were added to each well of cytotoxicity assay plates. Cell plates were incubated at 37° C., 5% CO2 for 2.5 h. The absorbance at 450 nm wavelength and the absorbance at 630 nm wavelength as reference was measured.
as §3

Row | Compound | EC50 (HBV) [nM] | CC50 at 6 days [1] [nM]
1 | CCOC(=O)C1=C(C23C4C5C2C2C3C4C52C(=O)O)NC(c2nccs2)=N[C@@H]1c1ccc(F)c(F)c1Cl (stereo in doubt) [Ib-7, (2S,3S,5S,6S,7S,8S)-4-((S*)-6-(2-chloro-3,4-difluorophenyl)-5-(ethoxycarbonyl)-2-(thiazol-2-yl)-3,6-dihydropyrimidin-4-yl)cubane-1-carboxylic Acid] | 25000 | 5
2 | CCOC(=O)C1=C(C23C4C5C2C2C3C4C52C(=O)O)NC(c2nccs2)=N[C@H]1c1cccc(F)c1C (single isomer, unassigned) [Ib-5, (1R,2R,3R,8S)-4-((S*)-5-(ethoxycarbonyl)-6-(3-fluoro-2-methylphenyl)-2-(thiazol-2-yl)-3,6-dihydropyrimidin-4-yl)cubane-1-carboxylic Acid] | 49000 | 17
3 | CCOC(=O)C1=C(C23C4C5C2C2C3C4C52C(=O)O)NC(c2nccs2)=N[C@@H]1c1cccc(F)c1Br (single isomer, unassigned) [Ib-19, (1S,2R,3S,8S)-4-((S*)-6-(2-bromo-3-fluorophenyl)-5-(ethoxycarbonyl)-2-(thiazol-2-yl)-3,6-dihydropyrimidin-4-yl)cubane-1-carboxylic Acid] | > 25000 | 12.5
4 | CCOC(=O)C1=C(C23C4C5C2C2C3C4C52C(=O)O)NC(c2ncc(F)cc2F)=NC1c1cccc(F)c1C (single isomer, unassigned) [Ib-18, (S*)-4-(2-(3,5-difluoropyridin-2-yl)-5-(ethoxycarbonyl)-6-(3-fluoro-2-methylphenyl)-3,6-dihydropyrimidin-4-yl)cubane-1-carboxylic Acid] | > 12500 | 61
5 | COC(=O)C1=C(C23C4C5C2C2C3C4C52CC(=O)O)NC(c2nccs2)=N[C@@H]1c1ccc(F)cc1Cl (single isomer, unassigned) [Ib-1, 2-((1S,2R,3R,8S)-4-((S*)-6-(2-chloro-4-fluorophenyl)-5-(methoxycarbonyl)-2-(thiazol-2-yl)-3,6-dihydropyrimidin-4-yl)cuban-1-yl)acetic Acid] | 42000 | 360
6 | CCOC(=O)C1=C(C23C4C5C2C2C3C4C52C(=O)O)NC(c2nccs2)=NC1c1ccc(F)cc1C (single isomer, unassigned) [Ia-5, (R*)-4-(5-(ethoxycarbonyl)-6-(4-fluoro-2-methylphenyl)-2-(thiazol-2-yl)-3,6-dihydropyrimidin-4-yl)cubane-1-carboxylic Acid] | > 50000 | 43
7 | COC(=O)C1=C(C23C4C5C2C2C3C4C52C(=O)O)NC(c2nccn2C)=NC1c1ccc(F)c(F)c1Cl (single isomer, unassigned) [Ia-2, (R*)-4-(6-(2-chloro-3,4-difluorophenyl)-5-(methoxycarbonyl)-2-(1-methyl-1H-imidazol-2-yl)-3,6-dihydropyrimidin-4-yl)cubane-1-carboxylic Acid] | > 100000 | 295
8 | COC(=O)C1=C(C23C4C5C2C2C3C4C52C(=O)O)NC(c2ncc(F)cc2F)=NC1c1cccc(F)c1C (single isomer, unassigned) [Ib-26, (S*)-4-(2-(3,5-difluoropyridin-2-yl)-5-(methoxycarbonyl)-6-(3-fluoro-2-methylphenyl)-3,6-dihydropyrimidin-4-yl)cubane-1-carboxylic Acid] | > 12500 | 160
9 | CCOC(=O)C1=C(C23C4C5C2C2C3C4C52C(=O)O)NC(c2nccs2)=NC1c1ccc(Cl)c(F)c1 (single isomer, unassigned) [Ib-23, (S*)-4-(6-(4-chloro-3-fluorophenyl)-5-(ethoxycarbonyl)-2-(thiazol-2-yl)-3,6-dihydropyrimidin-4-yl)cubane-1-carboxylic Acid] | > 6250 | 13

Source: US20220267313A1, “DIHYDROPYRIMIDINE DERIVATIVES AND USES THEREOF IN THE TREATMENT OF HBV INFECTION OR OF HBV-INDUCED DISEASES” (Janssen Sciences Ireland Unlimited Company, priority 2019, published 2022)
